Five molecules from patent publication US11629171B2, “Beta-hairpin peptidomimetics” (POLYPHOR AG, priority 2017, dated 2023) can be followed below.

Values after ≈ are worked out from the molar mass of the structure shown. Where a SMILES comes first, the peptide text is derived from it. Bridges are numbered along the chain shown (N, C = ends). Roman numbers before positions name the chains, in order. [ ]: non-standard residue; d: D form. The star is where a group is joined. Thr(ol) = C[C@@H](O)[C@H](N)CO; Tle = CC(C)(C)[C@H](N)C(=O)O; Isovaleryl = CC(C)CC(=O)*; dDab = NCC[C@@H](N)C(=O)O; hSer = N[C@@H](CCO)C(=O)O; Isobutyryl = CC(C)C(=O)*; NHCH(CH2OH)2 = OCC(CO)N*; Dab = NCC[C@H](N)C(=O)O; Dap = NC[C@H](N)C(=O)O

Assay type in all cases: cell-based
The subject of one data set is Escherichia coli 926415. The settings on record: 926415. An outline of the steps:
(§1)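 Broth microdilution per CLSI; MH-II (cation-adjusted) + 0.002% P-80 final; ~10^6 CFU/mL inoculum; 2-fold peptide series; 35° C, 18-20 h; MIC = no visible growth, μg/mL.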

Data set [1] has as its system Escherichia coli ATCC 25922. The conditions noted are these: ATCC 25922. An outline of the steps:
as §1

The test system of data set [2] is Acinetobacter baumannii 872842. The settings on record: 872842. Summed up:
as §1

For data set [3], the system named is Klebsiella pneumoniae SSI #3010. The settings on record: SSI #3010. Summed up: as §1
Data set [4] concerns Klebsiella pneumoniae 968733. The conditions noted are these: 968733. Summed up: as §1
In data set [5] the test system is Acinetobacter baumannii DSM 30008. The settings on record: DSM 30008. Summed up:
as §1

The subject of data set [6] is Enterobacter cloacae 848840. The conditions noted are these: 848840. Summed up: as §1
Data set [7] concerns Pseudomonas aeruginosa ATCC 27853. The conditions noted are these: ATCC 27853. An outline of the steps:
as §1

For data set [8], the system named is human red blood cells (hRBC). In words: Hemolysis. The conditions noted are these: red cells of human, 1 h, 200. An outline of the steps:
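Washed fresh hRBC (20% v/v) were incubated with peptides at 200 μg/mL for 1 h at 37° C with shaking at 300 rpm. Supernatant OD540 was read after centrifugation and dilution, blank-corrected, and expressed as percent of the 2% Triton X-100 (100% lysis) control; PBS with 10% water gave 0%.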

For `CC(C)CC(=O)N[C@H]1CSSC[C@@H](C(=O)N[C@H](CO)[C@@H](C)O)NC(=O)[C@H](C(C)(C)C)NC(=O)[C@H](CO)NC(=O)[C@H](Cc2c[nH]c3ccccc23)NC(=O)[C@H](CCO)NC(=O)[C@@H](CCN)NC(=O)[C@H](CCC(=O)N[C@@H](CCN)C(=O)N[C@H](C(=O)N[C@@H](CCN)C(=O)N[C@H]2CCNC(=O)[C@H]([C@@H](C)O)NC(=O)[C@H](CCN)NC(=O)[C@H](CCN)NC(=O)[C@H](CC(C)C)NC(=O)[C@@H](CC(C)C)NC(=O)[C@H](CCN)NC2=O)[C@@H](C)O)NC(=O)[C@H](CCN)NC(=O)[C@H](Cc2ccc(O)cc2)NC1=O` [Example 2] (I: Isovaleryl-CY[Dab]E[dDab][hSer]WS[Tle]C[Thr(ol)] / II: [Dab]T[Dab][Dab][Dab][dL]L[Dab][Dab]T; disulfide I:1-I:10; amide I:4-II:N; lactam II:4-II:C), the MIC – broadly, the smallest concentration in the dilution series that meets the test's criterion for growth inhibition – in the data set with Escherichia coli 926415 was found to be 0.125 µg/mL (≈ 0.0524 µM); in data set [1], 0.125 µg/mL (≈ 0.0524 µM); in data set [2] it was 0.125 µg/mL (≈ 0.0524 µM); in [3] it was 0.5 µg/mL (≈ 0.21 µM); in data set [4], 0.25 µg/mL (≈ 0.105 µM); in data set [5], 0.125 µg/mL (≈ 0.0524 µM). The minimum inhibitory concentration (MIC) in data set [6] is 0.5 µg/mL (≈ 0.21 µM); in data set [7], 0.25 µg/mL (≈ 0.105 µM). In data set [8], the “Hemolysis at 200 μg/mL” value was less than 1%.

Take `CC(C)C[C@@H]1NC(=O)[C@@H](CC(C)C)NC(=O)[C@H](CCN)NC(=O)[C@@H](NC(=O)[C@H](CCN)NC(=O)[C@@H](NC(=O)[C@H](CCN)NC(=O)CC[C@@H]2NC(=O)[C@H](CCN)NC(=O)[C@H](Cc3ccc(O)cc3)NC(=O)[C@@H](NC(=O)C(C)C)CSSC[C@@H](C(=O)N[C@H](CO)[C@@H](C)O)NC(=O)[C@H](C(C)(C)C)NC(=O)[C@H](CO)NC(=O)[C@H](Cc3c[nH]c4ccccc34)NC(=O)[C@H](CCO)NC(=O)[C@@H](CCN)NC2=O)[C@@H](C)O)CCNC(=O)[C@H]([C@@H](C)O)NC(=O)[C@H](CCN)NC(=O)[C@H](CCN)NC1=O` [Example 3] (I: Isobutyryl-CY[Dab]E[dDab][hSer]WS[Tle]C[Thr(ol)] / II: [Dab]T[Dab][Dab][Dab][dL]L[Dab][Dab]T; disulfide I:1-I:10; amide I:4-II:N; lactam II:4-II:C): the MIC against Escherichia coli 926415 is 0.25 µg/mL (≈ 0.105 µM); in [1], 0.125 µg/mL (≈ 0.0527 µM); in data set [2] it was 0.125 µg/mL (≈ 0.0527 µM); in data set [3] it was 0.125 µg/mL (≈ 0.0527 µM); in data set [4], 0.25 µg/mL (≈ 0.105 µM); in [5] it was 0.0625 µg/mL (≈ 0.0264 µM). The MIC in data set [6] was determined as 2 µg/mL (≈ 0.844 µM); in data set [7], 0.125 µg/mL (≈ 0.0527 µM). Further, in [8], the “Hemolysis at 200 μg/mL” value is given as less than 1%.

For the molecule `CC(C)CC(=O)N[C@H]1CSSC[C@@H](C(=O)N[C@H](CO)[C@@H](C)O)NC(=O)[C@H](C(C)(C)C)NC(=O)[C@H](CO)NC(=O)[C@H](Cc2c[nH]c3ccccc23)NC(=O)[C@H]([C@@H](C)O)NC(=O)[C@@H](CCN)NC(=O)[C@H](CCC(=O)N[C@@H](CCN)C(=O)N[C@H](C(=O)N[C@@H](CCN)C(=O)N[C@H]2CCNC(=O)[C@H]([C@@H](C)O)NC(=O)[C@H](CCN)NC(=O)[C@H](CCN)NC(=O)[C@H](CC(C)C)NC(=O)[C@@H](CC(C)C)NC(=O)[C@H](CCN)NC2=O)[C@@H](C)O)NC(=O)[C@H](CN)NC(=O)[C@H](Cc2ccc(O)cc2)NC1=O` [Example 4] (I: Isovaleryl-CY[Dap]E[dDab]TWS[Tle]C[Thr(ol)] / II: [Dab]T[Dab][Dab][Dab][dL]L[Dab][Dab]T; disulfide I:1-I:10; amide I:4-II:N; lactam II:4-II:C), the minimal inhibitory concentration (MIC) was found to be 0.25 µg/mL (≈ 0.105 µM) with Escherichia coli 926415; 0.125 µg/mL (≈ 0.0527 µM) in data set [1]; 0.125 µg/mL (≈ 0.0527 µM) in data set [2]; 0.125 µg/mL (≈ 0.0527 µM) in data set [3]; 0.5 µg/mL (≈ 0.211 µM) in data set [4]; 0.0625 µg/mL (≈ 0.0264 µM) in data set [5]. The MIC in [6] came out at 0.25 µg/mL (≈ 0.105 µM); in data set [7], 0.125 µg/mL (≈ 0.0527 µM). Besides, the “Hemolysis at 200 μg/mL” value in data set [8] is 1%.

Regarding `CC(C)CC(=O)N[C@H]1CSSC[C@@H](C(=O)NC(CO)CO)NC(=O)[C@H](C(C)(C)C)NC(=O)[C@H](CO)NC(=O)[C@H](Cc2c[nH]c3ccccc23)NC(=O)[C@H]([C@@H](C)O)NC(=O)[C@@H](CCN)NC(=O)[C@H](CCC(=O)N[C@@H](CCN)C(=O)N[C@H](C(=O)N[C@@H](CCN)C(=O)N[C@H]2CCNC(=O)[C@H]([C@@H](C)O)NC(=O)[C@H](CCN)NC(=O)[C@H](CCN)NC(=O)[C@H](CC(C)C)NC(=O)[C@@H](CC(C)C)NC(=O)[C@H](CCN)NC2=O)[C@@H](C)O)NC(=O)[C@H](CN)NC(=O)[C@H](Cc2ccc(O)cc2)NC1=O` [Example 5] (I: Isovaleryl-CY[Dap]E[dDab]TWS[Tle]C-{NHCH(CH2OH)2} / II: [Dab]T[Dab][Dab][Dab][dL]L[Dab][Dab]T; disulfide I:1-I:10; amide I:4-II:N; lactam II:4-II:C), the minimum inhibitory concentration (MIC) was determined as 0.125 µg/mL (≈ 0.053 µM) against Escherichia coli 926415; 0.0625 µg/mL (≈ 0.0265 µM) in data set [1]; 0.125 µg/mL (≈ 0.053 µM) in [2]; 0.125 µg/mL (≈ 0.053 µM) in data set [3]; 0.25 µg/mL (≈ 0.106 µM) in [4]; 0.0625 µg/mL (≈ 0.0265 µM) in data set [5]. Besides, the MIC in data set [6] and in data set [7] was 0.125 µg/mL (≈ 0.053 µM) throughout. In addition, the “Hemolysis at 200 μg/mL” value in data set [8] is less than 1%.

`CC(=O)N[C@H](C(=O)N[C@H]1CSSC[C@@H](C(N)=O)NC(=O)[C@H](C(C)C)NC(=O)[C@H](CCO)NC(=O)[C@H](Cc2c[nH]c3ccccc23)NC(=O)[C@H](CCO)NC(=O)[C@@H](CCN)NC(=O)[C@H](CCC(=O)N[C@@H](CCN)C(=O)N[C@H](C(=O)N[C@@H](CCN)C(=O)N[C@H]2CCNC(=O)[C@H]([C@@H](C)O)NC(=O)[C@H](CCN)NC(=O)[C@H](CCN)NC(=O)[C@H](CC(C)C)NC(=O)[C@@H](CC(C)C)NC(=O)[C@H](CCN)NC2=O)[C@@H](C)O)NC(=O)[C@H](CCN)NC(=O)[C@H](Cc2ccc(O)cc2)NC1=O)C(C)C` [Example 6] (I: Ac-VCY[Dab]E[dDab][hSer]W[hSer]VC-NH2 / II: [Dab]T[Dab][Dab][Dab][dL]L[Dab][Dab]T; disulfide I:2-I:11; amide I:5-II:N; lactam II:4-II:C): the minimal inhibitory concentration (MIC) amounted to 0.5 µg/mL (≈ 0.212 µM) in the data set on Escherichia coli 926415; 0.125 µg/mL (≈ 0.0531 µM) in [1]; 4 µg/mL (≈ 1.7 µM) in data set [2]; 0.25 µg/mL (≈ 0.106 µM) in data set [3]; 0.5 µg/mL (≈ 0.212 µM) in data set [4]; 0.125 µg/mL (≈ 0.0531 µM) in data set [5]. Also, the MIC in [6] was 4 µg/mL (≈ 1.7 µM); in data set [7], 0.125 µg/mL (≈ 0.0531 µM). Also, the “Hemolysis at 200 μg/mL” value in data set [8] was found to be 2%.
